# Structures can show the parent of a compound that is named as a salt.
# Tests used:
# σ1-receptor = biological target: T1, σ1-receptor (Cavia porcellus, UniProt Q60492); assay: Sigma-1 receptor binding assay, [3H](+)-pentazocine, brain membranes; conditions: guinea pig brain membranes; for % Binding σ1 10^−7M: compound at 10^−7 M; for % Binding σ1 10^−7M / % Binding σ1 10^−8M: [3H](+)-pentazocine 0.5 nM; for % Binding σ1 10^−8M: compound at 10^−8 M; for Ki: Sigma-1 receptor, [3H](+)-pentazocine
# T1 construct: guinea pig brains were homogenized; from tissue; host or cells: guinea pig brain membranes
# Method: Brain membrane preparation and binding assays for the σ1-receptor were performed as described (DeHaven-Hudkins et al., 1992) with some modifications. In brief, guinea pig brains were homogenized in 10 vols. (w/v) of Tris-HCl 50 mM 0.32 M sucrose, pH 7.4, with a Kinematica Polytron PT 3000 at 15000 r.p.m. for 30 s. The homogenate was centrifuged at 1000 g for 10 min at 4° C. and the supernatants collected and centrifuged again at 48000 g for 15 min at 4° C. The pellet was resuspended in 10 volumes of Tris-HCl buffer (50 mM, pH 7.4), incubated at 37° C. for 30 min, and centrifuged at 48000 g for 20 min at 4° C. Following this, the pellet was resuspended in fresh Tris-HCl buffer (50 mM, pH 7.4) and stored on ice until use.
# Each assay tube contained 10 μL of [^3H](+)-pentazocine (final concentration of 0.5 nM), 900 μL of the tissue suspension to a final assay volume of 1 mL and a final tissue concentration of approximately 30 mg tissue net weight/mL. Non-specific binding was defined by addition of a final concentration of 1 μM haloperidol. All tubes were incubated at 37° C. for 150 min before termination of the reaction by rapid filtration over Schleicher & Schuell GF 3362 glass fibre filters [previously soaked in a solution of 0.5% polyethylenimine for at least 1 h]. Filters were then washed with four times with 4 mL of cold Tris-HCl buffer (50 mM, pH 7.4). Following addition of scintillation cocktail, the samples were allowed to equilibrate overnight. The amount of bound radioactivity was determined by liquid scintillation spectrometry using a Wallac Winspectral 1414 liquid scintillation counter. Protein concentrations were determined by the method of Lowry et al. (1951).
# [1] = system: capsaicin-induced allodynia; assay: Von Frey filaments in a model of capsaicin-induced allodynia; assay type: in vivo; design: dose or concentration left out as unconfirmed; conditions: mice; capsaicin injected into paw; mechanical stimulus (von Frey)
# Method: In-Vivo-Experiments Using Von Frey Filaments in a Model of Capsaicine—Induced Allodynia:
# This model is described in detail in the experimental part of WO 2006/010587 A1, examples 1 and 2, the description being included here by reference. Capsaicin is thereby injected into experimental animals to produce acute pain followed by allodynia.
# Briefly after habituation mice were first treated with the test-compound (or not in controls). Then capsaicin (1% DMSO) is injected into their paw resulting in developing pain in the effected paw. The effected paw is then treated with a mechanical stimulus and the latency time before the paw is withdrawn is measured.
# T1 sequence (Q60492 whole entry): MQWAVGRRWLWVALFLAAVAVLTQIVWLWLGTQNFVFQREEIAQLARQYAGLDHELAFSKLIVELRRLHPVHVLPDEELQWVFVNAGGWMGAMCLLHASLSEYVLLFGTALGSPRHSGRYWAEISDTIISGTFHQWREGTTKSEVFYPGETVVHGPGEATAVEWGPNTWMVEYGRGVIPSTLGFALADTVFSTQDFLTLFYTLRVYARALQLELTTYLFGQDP
Structure (SMILES),melting point,Ki (σ1-receptor),further results
"CC(=O)N1CCN(CCOc2nn(-c3ccc(Cl)c(Cl)c3)c(C)c2C)CC1.O=C(O)C(=O)O (hydrate or solvate) [Example 12, 1-(4-(2-(1-(3,4-Dichlo-rophenyl)-4,5-dimethyl-1H-pyrazol-3-yloxy)ethyl)piperazin-1-yl)ethanone oxalate]",180 to 184 °C,–,–
"Cc1cc(OCCN2CCC(n3cnc4cccnc43)CC2)nn1-c1ccc(Cl)c(Cl)c1 [Example 1, 3-{1-[2-(1-(3,4-Dichlorophenyl)-5-methyl-1H-pyrazol-3-yloxy)ethyl]piperidin-4-yl}-3H-imidazo[4,5-b]pyridine]",104 to 107 °C,–,% Binding σ1 10^−7M (σ1-receptor): 94.4%; % Binding σ1 10^−8M (σ1-receptor): 49.4%
"Cc1cc(OCCN2CCC(N)C2)nn1-c1ccc(Cl)c(Cl)c1 (stereo not drawn) [Example 2, 1-{2-[1-(3,4-Dichlorophenyl)-5-methyl-1H-pyrazol-3-yloxy]ethyl}pyrrolidin-3-amine]",–,–,% Binding σ1 10^−7M (σ1-receptor): 90.7%; % Binding σ1 10^−8M (σ1-receptor): 53.2%
"CCOC(=O)N1CCN(CCOc2cc(C)n(-c3ccc(Cl)c(Cl)c3)n2)CC1 [Example 3, Ethyl 4-{2-[1-(3,4-dichlorophenyl)-5-methyl-1H-pyrazol-3-yloxy]ethyl}piperazine carboxylate]",–,–,% Binding σ1 10^−7M (σ1-receptor): 99.5%; % Binding σ1 10^−8M (σ1-receptor): 58.4%
"CC(=O)N1CCN(CCOc2cc(C)n(-c3ccc(Cl)c(Cl)c3)n2)CC1 [Example 4, 1-(4-(2-(1-(3,4-dichlorophenyl)-5-methyl-1H-pyrazol-3-yloxy)ethyl)piperazin-1-yl)ethanone]",–,–,% Binding σ1 10^−7M (σ1-receptor): 99.4%; % Binding σ1 10^−8M (σ1-receptor): 82.5%
"CC(=O)N1CCN(CCCCOc2nn(-c3ccc(Cl)c(Cl)c3)c(C)c2C)CC1.O=C(O)C(=O)O [Example 10, 1-(4-(4-(1-(3,4-Dichlo-rophenyl)-4,5-dimethyl-1H-pyrazol-3-yloxy)butyl)piperazin-1-yl)ethanone oxalate]",186 to 188 °C,–,–
"CC(=O)N1CCN(CCCCOc2cc(C)n(-c3ccc(Cl)c(Cl)c3)n2)CC1 [Example 13, 1-(4-{4-[1-(3,4-Dichloro-phenyl)-5-methyl-1H-pyrazol-3-yloxy]-butyl}-piperazin-1-yl)-ethanone]",147 to 150 °C,–,–

# Now from value to compound, other results behind:
melting point,Ki (σ1-receptor),Structure (SMILES),further results
137 to 140 °C,–,"CC(=O)C1CCN(CCOc2ccn(-c3ccc(Cl)cc3Cl)n2)CC1.O=C(O)C(=O)O (hydrate or solvate) [Example 7, 1-(1-[2-{1-(2.4-Dichlo-rophenyl)-1H-pyrazol-3-yloxy}ethyl]piperi-din-4-yl)ethanone oxalate]",–
98 to 100 °C,1.3 ± 0.4 nM,"CC(=O)C1CCN(CCOc2ccn(-c3ccc(Cl)c(Cl)c3)n2)CC1.O=C(O)C(=O)O [Example 5, 1-{1-[2-(1-(3,4-Dichlorophenyl)-1H-pyrazol-3-yloxy)ethyl]piperidin-4-yl}ethanone oxalate]",–
206 to 210 °C,4.2 nM,"CC(=O)N1CCN(CCOc2ccn(-c3ccc(Cl)c(Cl)c3)n2)CC1.O=C(O)C(=O)O [Example 6, 1-{4-[2-(1-(3,4-Dichlo-rophenyl)-1H-pyrazol-3-yloxy)ethyl]pipera-zin-1-yl}ethanone oxalate]",analgesia [1]: 77%
–,1.5 nM,"CC(=O)C1CCN(CCOc2ccn(-c3ccc(Cl)cc3Cl)n2)CC1 [Example 7, 1-(1-[2-{1-(2.4-Dichlo-rophenyl)-1H-pyrazol-3-yloxy}ethyl]piperi-din-4-yl)ethanone oxalate]",–
150 to 153 °C,1.3 nM,"CC(=O)C1CCN(CCOc2ccn(-c3ccc(Cl)cc3)n2)CC1.O=C(O)C(=O)O [Example 8, 1-(1-(2-(1-(4-Chloro-phenyl)-1H-pyrazol-3-yloxy)ethyl)piperidin-4-yl)ethanone oxalate]",–
158 to 165 °C,8.3 nM,"CC(=O)C1CCN(CCOc2cc(C)n(-c3ccc(Cl)c(Cl)c3)n2)CC1.O=C(O)C(=O)O [Example 9, 1-(1-(2-(1-(3,4-Dichlo-rophenyl)-5-methyl-1H-pyrazol-3-yloxy)ethyl)piperidin-4-yl)ethanone oxalate]",–
156 to 158 °C,–,"CC(=O)N1CCN(CCOc2ccn(-c3ccc(Cl)cc3Cl)n2)CC1.O=C(O)C(=O)O [Example 11, 1-(4-(2-(1-(2,4-Dichlo-rophenyl)-1H-pyrazol-3-yloxy)ethyl)piperazin-1-yl)ethanone oxalate]",–
